The values below come from patent US20240116985A1, “STAPLED PEPTIDES AND METHODS THEREOF” (priority 2020, published 2024).

Converted amounts (≈) assume the structure as drawn. Where two headings read alike, the source gives them in different places.

One data set can be described thus: Solubility in PBS. It is filed as physicochemical. In a few lines:
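Read-out is the HPLC peak area of the supernatant from ultracentrifuged PBS solution, scaled against a 50 μM peptide DMSO injection; value reported as [(PBS area)/(DMSO area)]*50 uM.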

Data set [1] addresses T1, full-length beta-Catenin (Uniprot ID P35222) (Homo sapiens, UniProt P35222).
T1 construct: 10 nM full-length beta-Catenin (Uniprot ID P35222)
T1 sequence (P35222 1-781): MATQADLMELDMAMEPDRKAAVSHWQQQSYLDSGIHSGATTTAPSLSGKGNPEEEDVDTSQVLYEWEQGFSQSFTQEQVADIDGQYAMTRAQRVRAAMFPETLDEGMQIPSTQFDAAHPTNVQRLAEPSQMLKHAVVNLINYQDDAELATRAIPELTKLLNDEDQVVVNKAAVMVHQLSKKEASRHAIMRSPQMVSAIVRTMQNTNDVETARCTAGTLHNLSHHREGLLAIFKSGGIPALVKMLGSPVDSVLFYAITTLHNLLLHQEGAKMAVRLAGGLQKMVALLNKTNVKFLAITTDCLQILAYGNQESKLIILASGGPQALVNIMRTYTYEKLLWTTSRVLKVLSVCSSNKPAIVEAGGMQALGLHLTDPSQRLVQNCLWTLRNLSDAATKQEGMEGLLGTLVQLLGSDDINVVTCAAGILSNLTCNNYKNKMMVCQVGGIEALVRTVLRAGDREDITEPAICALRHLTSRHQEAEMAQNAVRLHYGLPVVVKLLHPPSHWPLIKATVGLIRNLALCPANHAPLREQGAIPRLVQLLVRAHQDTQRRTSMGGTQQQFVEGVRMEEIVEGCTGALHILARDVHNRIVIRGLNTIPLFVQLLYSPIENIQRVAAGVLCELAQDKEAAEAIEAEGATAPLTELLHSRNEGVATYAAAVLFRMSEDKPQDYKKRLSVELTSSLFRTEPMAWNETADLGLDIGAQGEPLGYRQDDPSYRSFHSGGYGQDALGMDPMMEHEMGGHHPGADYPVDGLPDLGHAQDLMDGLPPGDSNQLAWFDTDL
In words: Fluorescence polarization IC50 (beta-catenin / 5FAM-TCF4 10-53 competition). It is filed as binding. As to conditions: read-out: beta-Catenin FP IC50. (In general: Fluorescence polarisation rises when a labelled molecule tumbles more slowly, as on binding a larger partner.)

For data set [2], the target named is T2, beta-catenin/TCF4 engagement (Homo sapiens, UniProt P35222).
T2 construct: expressed in transfected cells; host or cells: HEK293
T2 sequence (P35222 1-781): T1 sequence (P35222 1-781)
As to the kind of experiment: Nano-BRET target engagement assay (B-cat-Halo & TCF4-Luc in HEK293 cells). Format: cell-based. As to conditions: absolute IC50; read-out: NanoBRET Abs IC50. On the technique in general: BRET reads energy transfer from a luciferase to a nearby fluorophore.

Broadly, the Solubility is how much of the substance goes into solution per volume. The term IC50 denotes the concentration that inhibits the measured activity by half. On to `CC(=O)N1CCC[C@]12CC=CCCCC1(CCCC=CCCCOC(=O)N3CC[C@@](C(=O)N[C@@H](Cc4ccccc4Cl)C(=O)N[C@@H](Cc4csc5ccccc45)C(=O)N[C@@H](CCCCNC(C)C)C(N)=O)(C3)NC(=O)[C@H](CC(N)=O)NC(=O)[C@H](Cc3ccccc3)NC(=O)[C@H](C)NC(=O)[C@H](C)NC(=O)[C@H](CC(=O)O)NC(=O)[C@H](CC(=O)O)NC1=O)NC(=O)[C@H](CC(C)(C)C)NC(=O)[C@H](CC(=O)O)NC2=O` (stereo partly drawn) [I-1130, Ac-PL3-Asp-Npg-B5-Asp-Asp-Ala-Ala-Phe-Asn-PyrS2-2C1F-BztA-iPrLys-NH2], for which the Solubility in “Solubility in PBS” (Solubility (uM)) worked out at 15 µM (≈ 29.8 µg/mL). In addition, the values for the IC50 in data set [1] and in data set [2] were 6 nM and 7600 nM, respectively.
With `CC(=O)N1CCC[C@]12CC=CCCCC1(CCCC=CCCCOC(=O)N3CC[C@@](C(=O)N[C@@H](Cc4ccccc4Cl)C(=O)N[C@@H](Cc4csc5ccccc45)C(=O)N[C@@H](CCC(N)=O)C(N)=O)(C3)NC(=O)[C@H](CC(N)=O)NC(=O)[C@H](Cc3ccccc3)NC(=O)[C@H](C)NC(=O)[C@H](CCCCNC(C)C)NC(=O)[C@H](CC(=O)O)NC(=O)[C@H](CC(=O)O)NC1=O)NC(=O)[C@H](CC(C)(C)C)NC(=O)[C@H](CC(=O)O)NC2=O` (stereo partly drawn) [I-1131, Ac-PL3-Asp-Npg-B5-Asp-Asp-iPrLys-Ala-Phe-Asn-PyrS2-2C1F-BztA-Gln-NH2], the concentration in solution in “Solubility in PBS” (Solubility (uM)) (Solubility) came to 39 µM (≈ 79.8 µg/mL). Besides, the IC50 in data set [1] is 7 nM; in data set [2], 18800 nM.
For `CC(=O)N1CCC[C@]12CC=CCCCC1(CCCC=CCCCOC(=O)N3CC[C@@](C(=O)N[C@@H](Cc4ccccc4Cl)C(=O)N[C@@H](Cc4csc5ccccc45)C(=O)N[C@@H](CCC(N)=O)C(N)=O)(C3)NC(=O)[C@H](CC(N)=O)NC(=O)[C@H](Cc3ccccc3)NC(=O)[C@H](CCCCNC(C)C)NC(=O)[C@H](C)NC(=O)[C@H](CC(=O)O)NC(=O)[C@H](CC(=O)O)NC1=O)NC(=O)[C@H](CC(C)(C)C)NC(=O)[C@H](CC(=O)O)NC2=O` (stereo partly drawn) [I-1132, Ac-PL3-Asp-Npg-B5-Asp-Asp-Ala-iPrLys-Phe-Asn-PyrS2-2C1F-BztA-Gln-NH2], in that order: 49 µM (≈ 100 µg/mL), 21 nM and greater than 20000 nM.
For the compound `CC(=O)N1CCC[C@]12CC=CCCCC1(CCCC=CCCCOC(=O)N3CC[C@@](C(=O)N[C@@H](Cc4ccccc4Cl)C(=O)N[C@@H](Cc4csc5ccccc45)C(=O)N[C@@H](C(N)=O)[C@H](C)O)(C3)NC(=O)[C@H](CO)NC(=O)[C@H](Cc3ccccc3)NC(=O)[C@H](C)NC(=O)[C@H](C)NC(=O)[C@H](CC(=O)O)NC(=O)[C@H](CC(=O)O)NC1=O)NC(=O)[C@H](CC1CCCCC1)NC(=O)[C@H](CC(=O)O)NC2=O` (stereo partly drawn) [I-1136, Ac-PL3-Asp-Cha-B5-Asp-Asp-Ala-Ala-Phe-Ser-PyrS2-2C1F-BztA-dThr-NH2], the concentration in solution in “Solubility in PBS” (Solubility (uM)) (Solubility) was 40 µM (≈ 76.7 µg/mL). The IC50 in data set [1] (fluorescence polarization) turned out to be 16 nM; in data set [2], 14900 nM.
Turning to `CC(=O)N1CCC[C@]12CC=CCCCC1(CCCC=CCCCOC(=O)N3CC[C@@](C(=O)N[C@@H](Cc4ccccc4Cl)C(=O)N[C@@H](Cc4csc5ccccc45)C(=O)N[C@@H](C(N)=O)[C@H](C)O)(C3)NC(=O)[C@H](CC(C)C)NC(=O)[C@H](Cc3ccccc3)NC(=O)[C@H](C)NC(=O)[C@H](C)NC(=O)[C@H](CC(=O)O)NC(=O)[C@H](CC(=O)O)NC1=O)NC(=O)[C@H](CC1CCCCC1)NC(=O)[C@H](CC(=O)O)NC2=O` (stereo partly drawn) [I-1140, Ac-PL3-Asp-Cha-B5-Asp-Asp-Ala-Ala-Phe-Leu-PyrS2-2C1F-BztA-dThr-NH2], the “Solubility” value in the data set “Solubility in PBS” turned out to be 10 µM (≈ 19.4 µg/mL). The IC50 in data set [1] (fluorescence polarization) stood at 33 nM; in data set [2], 32500 nM.
Consider `CC(=O)N1CCC[C@]12CC=CCCCC1(CCCC=CCCCOC(=O)N3CC[C@@](C(=O)N[C@@H](Cc4ccccc4Cl)C(=O)N[C@@H](Cc4csc5ccccc45)C(=O)N[C@H](C(N)=O)[C@@H](C)O)(C3)NC(=O)[C@H](CO)NC(=O)[C@H](Cc3ccccc3)NC(=O)[C@H](C)NC(=O)[C@H](C)NC(=O)[C@H](CC(=O)O)NC(=O)[C@H](CC(=O)O)NC1=O)NC(=O)[C@H](Cc1ccccc1)NC(=O)[C@H](CC(=O)O)NC2=O` (stereo partly drawn) [I-1141, Ac-PL3-Asp-Phe-B5-Asp-Asp-Ala-Ala-Phe-Ser-PyrS2-2C1F-BztA-Thr-NH2], for which, in the data set “Solubility in PBS” (Solubility (uM)), the Solubility turned out to be 44 µM (≈ 84.2 µg/mL). For the same compound, the IC50 is 13 nM in data set [1] (fluorescence polarization) and 27300 nM in data set [2].
For `CC(=O)N1CCC[C@]12CC=CCCCC1(CCCC=CCCCOC(=O)N3CC[C@@](C(=O)N[C@@H](Cc4ccccc4Cl)C(=O)N[C@@H](Cc4csc5ccccc45)C(=O)N[C@@H](C(N)=O)[C@H](C)O)(C3)NC(=O)[C@H](CO)NC(=O)[C@H](Cc3ccccc3)NC(=O)[C@H](C)NC(=O)[C@H](C)NC(=O)[C@H](CC(=O)O)NC(=O)[C@H](CC(=O)O)NC1=O)NC(=O)[C@H](Cc1ccccc1)NC(=O)[C@H](CC(=O)O)NC2=O` (stereo partly drawn) [I-1142, Ac-PL3-Asp-Phe-B5-Asp-Asp-Ala-Ala-Phe-Ser-PyrS2-2C1F-BztA-dThr-NH2], in that order: 46 µM (≈ 88 µg/mL), 22 nM and greater than 20000 nM.
For the compound `CC(=O)N1CCC[C@]12CC=CCCCC1(CCCC=CCCCOC(=O)N3CC[C@@](C(=O)N[C@@H](Cc4ccccc4)C(=O)N[C@@H](Cc4csc5ccccc45)C(=O)N[C@@H](CCC(N)=O)C(N)=O)(C3)NC(=O)[C@H](CC(C)C)NC(=O)[C@H](Cc3ccccc3)NC(=O)[C@H](C)NC(=O)[C@H](CCCCNC(C)C)NC(=O)[C@H]([C@@H](C)O)NC(=O)[C@H](CC(=O)O)NC1=O)NC(=O)[C@H](C)NC(=O)[C@H](CC(N)=O)NC2=O` (stereo partly drawn) [I-1382, Ac-PL3-Asn-Ala-B5-Asp-Thr-iPrLys-Ala-Phe-Leu-PyrS2-Phe-BztA-Gln-NH2], the “Solubility” value in “Solubility in PBS” was found to be 10 µM (≈ 19.4 µg/mL). Besides, the IC50 in data set [1] (fluorescence polarization) stood at 2850 nM.
As for `CC(=O)N1CCC[C@]12CC=CCCCC1(CCCC=CCCCOC(=O)N3CC[C@@](C(=O)N[C@@H](Cc4ccccc4)C(=O)N[C@@H](Cc4csc5ccccc45)C(=O)N[C@@H](CCCCN)C(N)=O)(C3)NC(=O)[C@H](CC(C)C)NC(=O)[C@H](Cc3ccccc3)NC(=O)[C@H](C)NC(=O)[C@H](CCCCNC(C)C)NC(=O)[C@H]([C@@H](C)O)NC(=O)[C@H](CC(=O)O)NC1=O)NC(=O)[C@H](C)NC(=O)[C@H](CC(N)=O)NC2=O` (stereo partly drawn) [I-1383, Ac-PL3-Asn-Ala-B5-Asp-Thr-iPrLys-Ala-Phe-Leu-PyrS2-Phe-BztA-Lys-NH2], the “Solubility” value in the data set “Solubility in PBS” came to 10 µM (≈ 19.4 µg/mL). In addition, in data set [1] (fluorescence polarization), the IC50 amounted to 1660 nM.
Take `CC(=O)N1CCC[C@]12CC=CCCCC1(CCCC=CCCCOC(=O)N3CC[C@@](C(=O)N[C@@H](Cc4ccccc4)C(=O)N[C@@H](Cc4csc5ccccc45)C(=O)N[C@@H](CCC(N)=O)C(N)=O)(C3)NC(=O)[C@H](CC(C)C)NC(=O)[C@H](Cc3ccccc3)NC(=O)[C@H](C)NC(=O)[C@H](CCCCNC(C)C)NC(=O)[C@H](CCC(N)=O)NC(=O)[C@H](CC(=O)O)NC1=O)NC(=O)[C@H](C)NC(=O)[C@H](CC(N)=O)NC2=O` (stereo partly drawn) [I-1385, Ac-PL3-Asn-Ala-B5-Asp-Gln-iPrLys-Ala-Phe-Leu-PyrS2-Phe-BztA-Gln-NH2]: the “Solubility” value in the data set “Solubility in PBS” was determined as 10 µM (≈ 19.7 µg/mL). In data set [1] (fluorescence polarization), the IC50 was 1080 nM.
On to `CC(=O)N1CCC[C@]12CC=CCCCC1(CCCC=CCCCOC(=O)N3CC[C@@](C(=O)N[C@@H](Cc4ccccc4)C(=O)N[C@@H](Cc4csc5ccccc45)C(=O)N[C@@H](CCC(N)=O)C(N)=O)(C3)NC(=O)[C@H](CC(C)C)NC(=O)[C@H](Cc3ccccc3)NC(=O)[C@H](C)NC(=O)[C@H](CCCCNC(C)C)NC(=O)[C@H](CCCCN)NC(=O)[C@H](CC(=O)O)NC1=O)NC(=O)[C@H](C)NC(=O)[C@H](CC(N)=O)NC2=O` (stereo partly drawn) [I-1386, Ac-PL3-Asn-Ala-B5-Asp-Lys-iPrLys-Ala-Phe-Leu-PyrS2-Phe-BztA-Gln-NH2], for which the “Solubility” value in “Solubility in PBS” was found to be 10 µM (≈ 19.7 µg/mL). Besides, in data set [1] (fluorescence polarization), the IC50 amounted to 2250 nM.
With `CC(=O)N1CCC[C@]12CC=CCCCC1(CCCC=CCCCOC(=O)N3CC[C@@](C(=O)N[C@@H](Cc4ccccc4)C(=O)N[C@@H](Cc4ccc5ccccc5c4)C(=O)N[C@@H](CCC(N)=O)C(N)=O)(C3)NC(=O)[C@H](CC(C)C)NC(=O)[C@H](Cc3ccccc3)NC(=O)[C@H](C)NC(=O)[C@H](CCCCNC(C)C)NC(=O)[C@H]([C@@H](C)O)NC(=O)[C@H](CC(=O)O)NC1=O)NC(=O)[C@H](C)NC(=O)[C@H](CC(N)=O)NC2=O` (stereo partly drawn) [I-1387, Ac-PL3-Asn-Ala-B5-Asp-Thr-iPrLys-Ala-Phe-Leu-PyrS2-Phe-2NapA-Gln-NH2], the “Solubility” value in “Solubility in PBS” came to 10 µM (≈ 19.3 µg/mL). Further, in data set [1] (fluorescence polarization), the half-maximal inhibitory concentration (IC50) was determined as 6940 nM.
